Measurements taken from ChEMBL document CHEMBL4665642, “Anticancer profile of newly synthesized BRAF inhibitors possess 5-(pyrimidin-4-yl)imidazo[2,1-b]thiazole scaffold” (Bioorg Med Chem, 2019).

Legend:
[1] = target: RAF proto-oncogene serine/threonine-protein kinase (Homo sapiens, UniProt P04049); experiment: Inhibition of human CRAF using MEK1 as substrate by [gamma-33P]-ATP assay
[2] = target: Serine/threonine-protein kinase B-raf (Homo sapiens, UniProt P15056, V600E); experiment: Inhibition of human BRAF V600E mutant using MEK1 as substrate by […] assay
[3] = target: Serine/threonine-protein kinase B-raf (Homo sapiens, UniProt P15056); experiment: Inhibition of human BRAF using MEK1 as substrate by […] assay
L132 = experiment: Cytotoxicity against human L132 cells assessed as reduction in cell viability by MTT assay; assay type: cell-based
SK-MEL-28 = experiment: Cytotoxicity against human SK-MEL-28 cells assessed as reduction in cell viability by MTT assay; assay type: functional, cell-based
A-375 = experiment: Cytotoxicity against human A-375 cells assessed as reduction in cell viability by MTT assay; assay type: functional, cell-based
T47D = experiment: Cytotoxicity against human T47D cells assessed as cell viability at 10 uM incubated for 48 hrs by sulforhodamine B assay relative to control; assay type: functional; details: read-out: Activity
MCF7 = experiment: Cytotoxicity against human MCF7 cells assessed as cell viability at 10 uM incubated for 48 hrs by sulforhodamine B assay relative to control; assay type: functional; details: read-out: Activity
PC-3 = experiment: Cytotoxicity against human PC-3 cells assessed as cell viability at 10 uM incubated for 48 hrs by sulforhodamine B assay relative to control; assay type: functional; details: read-out: Activity
UO-31 = experiment: Cytotoxicity against human UO-31 cells assessed as cell viability at 10 uM incubated for 48 hrs by sulforhodamine B assay relative to control; assay type: functional; details: read-out: Activity
OVCAR-5 = experiment: Cytotoxicity against human OVCAR-5 cells assessed as cell viability at 10 uM incubated for 48 hrs by sulforhodamine B assay relative to control; assay type: functional; details: read-out: Activity
OVCAR-4 = experiment: Cytotoxicity against human OVCAR-4 cells assessed as cell viability at 10 uM incubated for 48 hrs by sulforhodamine B assay relative to control; assay type: functional; details: read-out: Activity
IGROV-1 = experiment: Cytotoxicity against human IGROV-1 cells assessed as cell viability at 10 uM incubated for 48 hrs by sulforhodamine B assay relative to control; assay type: functional; details: read-out: Activity
SK-MEL-5 = experiment: Cytotoxicity against human SK-MEL-5 cells assessed as cell viability at 10 uM incubated for 48 hrs by sulforhodamine B assay relative to control; assay type: functional; details: read-out: Activity
SK-MEL-2 = experiment: Cytotoxicity against human SK-MEL-2 cells assessed as cell viability at 10 uM incubated for 48 hrs by sulforhodamine B assay relative to control; assay type: functional; details: read-out: Activity
HL-60(TB) = experiment: Cytotoxicity against human HL-60(TB) cells assessed as cell viability at 10 uM incubated for 48 hrs by sulforhodamine B assay relative to control; assay type: functional; details: read-out: Activity
K562 = experiment: Cytotoxicity against human K562 cells assessed as cell viability at 10 uM incubated for 48 hrs by sulforhodamine B assay relative to control; assay type: functional; details: read-out: Activity
MOLT-4 = experiment: Cytotoxicity against human MOLT-4 cells assessed as cell viability at 10 uM incubated for 48 hrs by sulforhodamine B assay relative to control; assay type: functional; details: read-out: Activity
RPMI-8226 = experiment: Cytotoxicity against human RPMI-8226 cells assessed as cell viability at 10 uM incubated for 48 hrs by sulforhodamine B assay relative to control; assay type: functional; details: read-out: Activity
A549 = experiment: Cytotoxicity against human A549 cells assessed as cell viability at 10 uM incubated for 48 hrs by sulforhodamine B assay relative to control; assay type: functional; details: read-out: Activity
EKVX = experiment: Cytotoxicity against human EKVX cells assessed as cell viability at 10 uM incubated for 48 hrs by sulforhodamine B assay relative to control; assay type: functional; details: read-out: Activity
HOP-62 = experiment: Cytotoxicity against human HOP-62 cells assessed as cell viability at 10 uM incubated for 48 hrs by sulforhodamine B assay relative to control; assay type: functional; details: read-out: Activity
HCC 2998 = experiment: Cytotoxicity against human HCC 2998 cells assessed as cell viability at 10 uM incubated for 48 hrs by sulforhodamine B assay relative to control; assay type: functional; details: read-out: Activity
SF-539 = experiment: Cytotoxicity against human SF-539 cells assessed as cell viability at 10 uM incubated for 48 hrs by sulforhodamine B assay relative to control; assay type: functional; details: read-out: Activity
SNB-19 = experiment: Cytotoxicity against human SNB-19 cells assessed as cell viability at 10 uM incubated for 48 hrs by sulforhodamine B assay relative to control; assay type: functional; details: read-out: Activity

Sequence of RAF proto-oncogene serine/threonine-protein kinase (P04049 whole entry): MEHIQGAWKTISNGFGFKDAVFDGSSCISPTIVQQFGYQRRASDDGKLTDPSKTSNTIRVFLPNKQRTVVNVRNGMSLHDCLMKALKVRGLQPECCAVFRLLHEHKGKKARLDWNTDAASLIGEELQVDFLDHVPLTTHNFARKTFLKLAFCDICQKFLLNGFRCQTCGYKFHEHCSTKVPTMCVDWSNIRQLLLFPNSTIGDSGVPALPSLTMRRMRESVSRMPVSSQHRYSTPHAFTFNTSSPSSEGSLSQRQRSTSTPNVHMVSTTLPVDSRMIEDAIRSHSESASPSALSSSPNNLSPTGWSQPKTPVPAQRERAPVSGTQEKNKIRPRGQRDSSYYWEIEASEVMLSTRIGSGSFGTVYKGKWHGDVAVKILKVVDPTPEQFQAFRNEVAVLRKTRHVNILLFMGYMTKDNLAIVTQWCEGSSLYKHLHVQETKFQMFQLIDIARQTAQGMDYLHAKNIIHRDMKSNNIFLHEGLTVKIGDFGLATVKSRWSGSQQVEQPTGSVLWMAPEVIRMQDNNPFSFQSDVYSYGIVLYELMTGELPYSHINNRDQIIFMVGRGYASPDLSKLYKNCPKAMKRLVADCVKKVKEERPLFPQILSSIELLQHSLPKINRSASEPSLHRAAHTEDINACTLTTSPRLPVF
Sequence of Serine/threonine-protein kinase B-raf (Homo sapiens, UniProt P15056, V600E) (P15056 2-766 V600E limits assumed): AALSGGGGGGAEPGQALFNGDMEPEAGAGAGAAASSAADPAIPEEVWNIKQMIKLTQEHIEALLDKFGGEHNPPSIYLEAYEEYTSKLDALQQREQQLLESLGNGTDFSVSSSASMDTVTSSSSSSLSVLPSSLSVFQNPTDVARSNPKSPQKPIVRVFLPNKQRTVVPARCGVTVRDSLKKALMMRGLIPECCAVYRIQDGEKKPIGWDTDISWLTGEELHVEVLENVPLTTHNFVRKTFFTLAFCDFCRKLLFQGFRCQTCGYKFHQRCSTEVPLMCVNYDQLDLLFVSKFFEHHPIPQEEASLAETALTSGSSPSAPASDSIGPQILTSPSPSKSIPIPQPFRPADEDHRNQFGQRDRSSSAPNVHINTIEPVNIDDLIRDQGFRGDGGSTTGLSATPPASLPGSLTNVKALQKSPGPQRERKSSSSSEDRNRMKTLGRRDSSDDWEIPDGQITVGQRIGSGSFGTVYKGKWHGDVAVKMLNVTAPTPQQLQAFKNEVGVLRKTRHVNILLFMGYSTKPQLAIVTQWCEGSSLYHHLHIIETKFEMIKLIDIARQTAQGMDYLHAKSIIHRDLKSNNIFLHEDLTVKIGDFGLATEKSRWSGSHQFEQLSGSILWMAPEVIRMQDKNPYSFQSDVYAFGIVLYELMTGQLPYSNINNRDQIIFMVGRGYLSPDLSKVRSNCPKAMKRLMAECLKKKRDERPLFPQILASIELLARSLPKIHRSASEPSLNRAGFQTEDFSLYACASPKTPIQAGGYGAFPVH
Sequence of Serine/threonine-protein kinase B-raf (Homo sapiens, UniProt P15056) (P15056 whole entry): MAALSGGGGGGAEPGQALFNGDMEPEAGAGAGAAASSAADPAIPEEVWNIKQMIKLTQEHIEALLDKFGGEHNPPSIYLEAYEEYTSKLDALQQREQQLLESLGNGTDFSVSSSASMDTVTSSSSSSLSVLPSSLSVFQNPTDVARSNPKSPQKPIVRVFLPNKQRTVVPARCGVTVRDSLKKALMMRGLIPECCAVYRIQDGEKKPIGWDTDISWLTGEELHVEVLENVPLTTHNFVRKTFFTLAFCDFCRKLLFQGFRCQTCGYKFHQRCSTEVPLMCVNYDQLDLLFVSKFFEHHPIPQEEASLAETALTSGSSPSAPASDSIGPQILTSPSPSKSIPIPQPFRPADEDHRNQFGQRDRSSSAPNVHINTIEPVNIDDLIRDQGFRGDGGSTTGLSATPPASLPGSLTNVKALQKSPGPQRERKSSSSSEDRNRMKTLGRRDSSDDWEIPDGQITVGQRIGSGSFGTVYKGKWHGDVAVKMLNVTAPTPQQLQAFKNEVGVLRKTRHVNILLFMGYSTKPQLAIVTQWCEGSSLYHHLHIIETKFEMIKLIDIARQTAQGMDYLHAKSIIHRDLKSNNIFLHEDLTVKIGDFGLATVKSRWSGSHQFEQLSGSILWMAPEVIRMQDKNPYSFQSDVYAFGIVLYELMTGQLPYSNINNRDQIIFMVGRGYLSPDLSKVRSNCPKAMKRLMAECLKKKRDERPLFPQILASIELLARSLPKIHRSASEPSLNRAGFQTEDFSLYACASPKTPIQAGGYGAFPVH

| Compound | IC50 [1] [nM] | IC50 [2] [nM] | IC50 [3] [nM] | IC50 (L132) [nM] | IC50 (SK-MEL-28) [nM] | IC50 (A-375) [nM] | viability at 10 µM (T47D) [%] | viability at 10 µM (MCF7) [%] | viability at 10 µM (PC-3) [%] | viability at 10 µM (UO-31) [%] | viability at 10 µM (OVCAR-5) [%] | viability at 10 µM (OVCAR-4) [%] | viability at 10 µM (IGROV-1) [%] | viability at 10 µM (SK-MEL-5) [%] | viability at 10 µM (SK-MEL-2) [%] | viability at 10 µM (HL-60(TB)) [%] | viability at 10 µM (K562) [%] | viability at 10 µM (MOLT-4) [%] | viability at 10 µM (RPMI-8226) [%] | viability at 10 µM (A549) [%] | further results |
| --- | --- | --- | --- | --- | --- | --- | --- | --- | --- | --- | --- | --- | --- | --- | --- | --- | --- | --- | --- | --- | --- |
| O=S(=O)(NCCCNc1nccc(-c2c(-c3cccc(F)c3)nc3sccn23)n1)c1ccc(C(F)(F)F)cc1 | 40 | 26 | 63 | 320000 | 11600 | 4090 | 56 | 82.1 | 67.8 | 57.9 | 129 | 93 | 66.2 | 91.1 | 89.9 | 127 | 69.8 | 62 | 87.4 | 83.5 | viability at 10 µM (EKVX): 87.3%; viability at 10 µM (HOP-62): 104%; viability at 10 µM (HCC 2998): 125%; viability at 10 µM (SF-539): 110%; viability at 10 µM (SNB-19): 96.1% |
| O=C(NCCNc1nccc(-c2c(-c3cccc(F)c3)nc3sccn23)n1)c1c(F)cccc1F | 102 | 33.1 | 95.3 | 198000 | 11400 | 2700 | 26.7 | 17.5 | 57 | 20.8 | 72.7 | 60.9 | 12.1 | 17.1 | 62.4 | 86.4 | 40.2 | 35.9 | 41 | 29.1 | viability at 10 µM (EKVX): 61.2%; viability at 10 µM (HOP-62): 63.8%; viability at 10 µM (HCC 2998): 70.4%; viability at 10 µM (SF-539): 65.9%; viability at 10 µM (SNB-19): 55.2% |
